Test results reported in EP0207599A1, “Arachidonic acid analogues” (BEECHAM GROUP PLC, priority 1985, dated 1987).

The molecules below were run on Phospholipase A2 (Naja naja venom , Sigma) (assay: Inhibition of phospholipase A2 activity (release of 14C-arachidonic acid from phosphatidylcholine substrate)). Settings: at 20µM; mean ± standard deviation of triplicate samples; 37°C, pH 8.7, CaCl2 4mM.
Type: biochemical
Experimental: Method For The Measurement of Inhibition of Phospholipase A2 Activity
Enzyme: Phospholipase A2 (Naja naja venom , Sigma)
Substrate: Diarachidoyl phosphatidylcholine (10.6mg) and α-1-palmitayl-2-[1-^14C]-arachidonyl phosphatidylcholine (0.5pCi; 52.9nCi/mMol) in 28ml of TrisHCl buffer = […], pH 8.7) ultrasonicated.
Assay: Incubations containing PLA2 (0.125ng) in Tris HC1 buffer (100mM, pH 8.7) and CaCl2 (4mM) were prepared on ice. Immediately prior to incubation at 37°C 5µl of DMSO or compound in DMSO were added. The final assay volume was 1.75ml. After 10 minutes incubation at 37°C 750pl of substrate was added, with mixing, and the incubation continued for a further 15 min. The reaction is terminated by placing on ice and adding 5m1 CHCl3:MeOH (2:1v/v).
The lower organic phase is remaved ahd stored under N2 at -20°C until analysed. Analysis is by 1-dimensional t.l.c. on polygram Sil G sheets in the solvent system: petroleum ether: diethyl ether: acetic acid (60:40:1, v/v). In this solvent system the phospholipid remains at the origin and the arachidonic acid has an approximate Rf. value of 0.36. The areas of interest are cut from the plates and their radioactivity determined by liquid scintillation counting.
All compounds are tested in triplicate.
Calculation: The radioactivity of the arachidonic acid is expressed as a percentage of the total dpm cut from the plate. The percentage inhibition of arachidonic acid release compared to that of the control is calculated after correction for the level of spontaneous release where: • x = % corrected mean arachidonic acid release in control • y = % corrected arachidonic acid release after inhibition [formula]
The nean of the triplicate sanples is calculated giving z ± standard deviation %.

First: 6-[2-(1-Octynyl)phenyl)hex-5-yn-1-oic acid [Example 23]
Second: CCCCCCC#Cc1cccc(/C=C/CCCC(=O)O)c1 [Example 5, 6-[3-(1-Octynyl)phenyl]-E-hex-5-en-1-oic acid]
The “Percent inhibition of phospholipase A2 at x µM concentration.” value (“Percent inhibition of phospholipase A2” for short) of the first is lower: 25.0± 19.0 at 20µM % for the first, 78.9± 4.7 at 20µM % for the second.

`CCCCCCC#Cc1ccccc1C#CCCC(C(=O)O)C(=O)OC(C)(C)C` (centres unmarked) [Example 21, 2-(4-[2-(1-Octynyl)phenyl]-but-3-ynyl)malonic acid monotertbutyl ester] and “6-(2-(1-Octynyl)pheny]-E-hex-5-en-1-oic acid [Example 2]” are within error of each other in “Percent inhibition of phospholipase A2” value: 62.0± 4.4 at 20µM % for the first, 76.2± 13.9 at 20µM % for the second.

Going from `CCCCCC/C=C\c1ccccc1/C=C\CCC(C(=O)O)C(=O)O` [Example 15, 2-(4-[2-(Z)-1-Octenyl)phenyl-(Z)-but-3-enyl)malonic acid] to `CCCCCCC#Cc1ccccc1C#CCCC(C(=O)O)C(=O)O` [Example 13, 2-(4-[2-(1-octynyl)phenyl]-but-3-ynyl)malonic acid.], the “Percent inhibition of phospholipase A2” value falls from 65.0± 17.0 at 20µM % to 23.1± 17.6 at 20µM %.

`CCCCCC/C=C\c1ccccc1/C=C/CCCC(=O)O` [Example 3, 6-[2-(Z-1-Octenyl)phenyl]-E-hex-5-en-1-oic acid] and `CCCCCC/C=C\c1ccccc1/C=C\CCCC(=O)O` [Example 25, 6-[2-((Z)-1-octenyl)phenyl]-(Z)-hex-5-en-1-oic acid] are within error of each other in “Percent inhibition of phospholipase A2” value: 72.9± 10.3 at 20µM % for the first, 69.8± 8.3 at 20µM % for the second.
